The text below walks through data of patent US20070088508A1, “Cocrystallization methods” (priority 2005, published 2007).

A short description of data set [1]: Intrinsic dissolution studies. In kind it is physicochemical. The following applies: crystalline solid. The protocol: Intrinsic dissolution measurements were performed using a fiber optic probe (Delphian® type 11A fiber optic workstation, baseline correction mode with sample wavelength maximum of 279 nm and baseline wavelength of 350 nm) at 37° C. and 100 rpm in a USP apparatus II dissolution vessel (Vankel VK7010) containing 500 mL of pure water. Disks 0.8 cm diameter were compressed using 70 mg of solid in stainless steel dies (Vankel Woods apparatus) at 1000 lbs for 60 seconds with a Carver Press. Dissolution studies for cocrystal 2 lasted 90 minutes, after which time the disks were recovered, carefully ground and checked by XRPD for the presence of cocrystal. Due to the low solubility of Compound 1, dissolution studies were run over 24 hours in order to get a measurable rate.

Data set [2] is described as follows: Solubility in aqueous systems. In kind it is physicochemical. An excerpt:
Five cocrystals of 2-4-(4-chloro-2-fluorophenoxy)phenyl]pyrimidine-4-carboxamide (Compound 1) were identified by using techniques of the disclosure. […] Although the permeability of Compound 1 could not be measured in Caco-2 cells because of its inherently low solubility, Compound 1 is suspected to be a Class II compound (low solubility and high permeability) as described in the biopharmaceutical drug classification scheme (BCS) (Amidon, Gordon L., Lennernaes, Hans, Shah, Vinod P. and Crison, John R. (1995) “A theoretical basis for a biopharmaceutic drug classification: the correlation of in vitro drug product dissolution and in vivo bioavailability” Pharmaceutical Research […], 12(3), 4 13-20). The calculated octanol/water partition coefficient (clogP) for Compound 1 is 2.9, supporting this suspicion (Yazdanian, Mehran, Glynn, Susan L., Wright, James L., and Hawi, Amale. (1998) “Correlating partitioning and Caco-2 cell permeability of structurally diverse small molecular weight compounds” Pharmaceutical Research 1998 15(9), 1490-1494). […] Cocrystallization techniques were used as a tool to improve the pharmaceutical properties of Compound 1.

Data set [3] is described as follows: Pharmacokinetic evaluation in beagle dogs after oral dosing of neat solid in gelatin capsule. The following applies: oral dosing of the crystalline solid. In kind it is in vivo. How it is done: A study was conducted to compare the pharmacokinetic profiles of Compound 1 and Cocrystal 2. Compound 1 and Cocrystal 2 were administered as neat solids to six male beagle dogs in a crossover study with a two-week washout period between treatments. Each dog was dosed with either Compound 1 or Cocrystal 2 in a gelatin capsule after an overnight fast. All research involving animal subjects adhered to the “Principles of Laboratory Animal Care” (NIH publication #85-23). Dose levels of 5 mg/kg and 50 mg/kg were each evaluated. Each dog received one size #2 capsule for the 5 mg/kg dose. Dosing at 50 mg/kg required use of two size #00 capsules for each dog. Blood samples were collected at intervals for 36 hours post-dose. Non-compartmental pharmacokinetic metrics were determined using WinNonlin v. 1.5 (Scientific Consulting, Inc., Mountain View, Calif.). The area under the plasma concentration-time curve (AUC) was estimated by application of the linear trapezoidal rule. Statistical analyses were conducted using Microsoft Excel 2000; statistical significance was considered when p<0.05.

For the compound `NC(=O)c1ccnc(-c2ccc(Oc3ccc(Cl)cc3F)cc2)n1` [Compound 1], in data set [1], the in-vitro dissolution result is “low”. For the same compound, the “solubility in aqueous systems” value in data set [2] is under 0.1 µg/mL. Moreover, the in-vivo plasma concentrations result in data set [3] is “low”.
